Assay results from patent US20260337656A1, “METHODS OF SYNTHESIZING PEPTIDES WITH FREE N-TERMINAL CYSTEINE AND PRODUCTS THEREOF” (OHIO STATE INNOVATION FOUNDATION, priority 2022, published 2026).
No end group written: not given here.

Assays:
[1] = biological target: T1, A. sobria ProAP (Aeromonas sobria, UniProt P46547); experiment: ProAP activity assay (kinetic constants of A. sobria ProAP against selected peptide substrates); format: biochemical; conditions: role: substrate; for kcat/KM: PBS pH 7.4, 2 mM DTT, 0-500 μM peptide, 0.5-25 nM ProAP, mean ± SD of three independent sets of experiments; for decrease in catalytic activity on substitution of Ala for Gly at P2′: peptide 6 compared with 9, peptide 10 compared with 8; for change in catalytic activity on replacement of His at P3′ with Gly or Ser: peptides 1 and 9 or peptides 3 and 6 compared
T1 sequence (P46547 whole entry, added parts left off): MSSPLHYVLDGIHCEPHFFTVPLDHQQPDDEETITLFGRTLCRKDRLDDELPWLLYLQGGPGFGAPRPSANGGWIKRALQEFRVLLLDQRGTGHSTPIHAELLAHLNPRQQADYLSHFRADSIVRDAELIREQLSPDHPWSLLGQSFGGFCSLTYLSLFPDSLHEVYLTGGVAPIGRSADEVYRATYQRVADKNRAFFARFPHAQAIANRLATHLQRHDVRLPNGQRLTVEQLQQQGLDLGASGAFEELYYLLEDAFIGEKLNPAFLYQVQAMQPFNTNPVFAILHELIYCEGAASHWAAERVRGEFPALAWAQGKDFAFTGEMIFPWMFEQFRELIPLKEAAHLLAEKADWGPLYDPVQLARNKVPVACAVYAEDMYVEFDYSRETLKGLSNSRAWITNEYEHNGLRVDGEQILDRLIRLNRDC
Procedure: A typical assay reaction (total volume of 100 μL) contained PBS (10 mM Na2HPO4, 1.8 mM KH2PO4, 137 mM NaCl, 2.7 mM KCl, 2 mM DTT pH 7.4) and 0-500 μM peptide substrate. The reaction was initiated by the addition of ProAP (final concentration of 0.5-25 nM) and quenched after 5-30 min by the addition of 100 μL of 10% TFA. The reaction mixture was centrifuged at 15,000 rpm in a microcentrifuge for 5 min, and the clear supernatant was analyzed on a Waters Acquity UPLC-MS equipped with a BEH C18 column (1.7 μm, 2.1 mm I.D., 100 mm length). The column was eluted with a linear gradient of acetonitrile (0-25% over 8 min) in water containing 0.05% TFA. The percentage of substrate-to-product conversion was determined by comparing the peak areas of the remaining substrate and the reaction product (monitored at 280 nm) and kept at ≤20%. The initial rates were calculated from the conversion percentages and plotted versus [S]. Data fitting against the Michaelis-Menten equation V=Vmax[S]/(KM+[S]) or the simplified equation V=kcat[E][S]/KM (when KM>>[S]) gave the kinetic constants kcat, KM, and/or kcat/KM.
To confirm the screening results, we individually synthesized a panel of peptides and determined their kinetic properties toward A. sobria ProAP (Table 1). Peptides 1-6 are representative (preferred) sequences selected from the library, while peptide 7 is the consensus sequence based on the screening results. Peptide 8 is a variant of peptide 7, containing a proline (instead of a lysine) at the P5′ position. We anticipated that a proline residue at this position would improve the proteolytic stability of the peptide. Peptide 9 is a variant of peptide 6 (substitution of Gly for Ala at the P2′ position) and was designed to test the importance of a Gly residue at the P2′ position. Peptide 10 is also a variant of peptide 6 but contains a Pro at position P5′ (in place of Lys) to impart proteolytic stability. Peptide 11 is derived from a colorless bead during library screening (Table C) and expected to be a poor substrate of ProAP (“negative” control). All peptides contained a Tyr at the P6′ position, to facilitate concentration measurement as well as monitoring the enzymatic reactions by UPLC (at 280 nm).

[2] = biological target: T1, A. sobria ProAP; experiment: Proline removal from peptide 8 by ProAP before N-terminal labeling (UPLC-MS); format: biochemical
Procedure: Peptide (100 μM) was incubated with ProAP (4 μM) in 20 mM Tris, pH 8.5, 100 mM NaCl for 1 h at 37° C. One half of the reaction (40 μL) was set aside for later UPLC-MS analysis, while the other half was mixed with 40 μL of FAM-CO-SR (400 μM), sodium 2-mercaptoethanesulfonate (2 mM), and TCEP (2.5 mM) in PBS (H 7.5). The mixture was incubated at room temperature for 5 h and analyzed by UPLC-MS.
We first tested the feasibility of generating an N-terminal cysteine by ProAP and specific N-terminal conjugation with a peptide as substrate. […] The reaction mixture was next treated with an excess of fluorescein 2-mercaptoethanesulfonate thioester (FAM-CO-SR; 4 equivalents) in the presence of 2-mercaptoethanesulfonate (2-MES) and TCEP in a phosphate buffer (pH 7.5).

Compound	kcat/KM [1]	other results
PCSHKGY-NH2 [Peptide 4, PCSHKGY]	3.2 ± 0.1 ×10^5 M^−1 s^−1	
PCGHKAY-NH2 [Peptide 9, PCGHKAY]	7.2 ± 2.6 ×10^5 M^−1 s^−1	
O=C(O)CCP(CCC(=O)O)CCC(=O)O [TCEP, tris(carboxyethyl)phosphine, reference compound]		inhibition of A. sobria ProAP activity ([2]; role: inhibitor): strongly inhibits
PCAHKPY-NH2 [Peptide 10, PCAHKPY]	2.8 ± 0.8 ×10^5 M^−1 s^−1	decrease in catalytic activity on substitution of Ala for Gly at P2′ [1]: 2- to 3 fold
PCASKAY-NH2 [Peptide 3, PCASKAY]	3.8 ± 0.4 ×10^5 M^−1 s^−1	change in catalytic activity on replacement of His at P3′ with Gly or Ser [1]: ≤ 1.3 fold
PCEFTRY-NH2 [Peptide 5, PCEFTRY]	3.2 ± 0.9 ×10^5 M^−1 s^−1	
PCAHKAY-NH2 [Peptide 6, PCAHKAY]		decrease in catalytic activity on substitution of Ala for Gly at P2′ [1]: 2- to 3 fold
PCGHKKY-NH2 [Peptide 7, PCGHKKY]	8.2 ± 0.7 ×10^5 M^−1 s^−1	
PCGGKAY-NH2 [Peptide 1, PCGGKAY]	7.0 ± 1.2 ×10^5 M^−1 s^−1	change in catalytic activity on replacement of His at P3′ with Gly or Ser [1]: ≤ 1.3 fold
PCGHKPY-NH2 [Peptide 8, PCGHKPY]	8.3 ± 3.2 ×10^5 M^−1 s^−1	disappearance of peptide on treatment with ProAP ([2]; role: substrate, 100 μM peptide, 4 μM ProAP, 60 min): complete disappearance
PCHDETY-NH2 [Peptide 11, PCHDETY]	0.038 ± 0.010 ×10^5 M^−1 s^−1	less active than peptides 1-10 ([1]; negative control compared with peptides 1-10): ~ 2 orders of magnitude
PCGSSKY-NH2 [Peptide 2, PCGSSKY]	5.8 ± 1.0 ×10^5 M^−1 s^−1	
